Measurements from US9102648B1, “Bioavailable diacylhydrazine ligands for modulating the expression of exogenous genes via an ecdysone receptor complex” (Intrexon Corporation, priority 2003, dated 2015).
Converted amounts (≈) assume the structure as drawn. Like-named read-outs stand apart in the source and are kept apart here.

What was measured:
[1] = Determination of LC Log P (experimental); format: physicochemical; settings: for chromatographic logP: from LC retention time against log P standards, read-out: LC LogP (exp); for logP: diacylhydrazine log P standards (log P known experimentally)
Procedure: Liquid chromatography retention times (RT) are measured for each substance using the conditions described below. A linear equation is derived relating RT to log P is developed from the data for the log P standards. The log P for the test compound is calculated from the log P/retention time equation.

[2] = target: GAL4 DBD (1-147)-CfEcR(DEF)/VP16AD-βRXREF-LmUSPEF (Choristoneura fumiferana, UniProt O77240); experiment: cell-based; settings: for 27-63 assay Rel Max FI: maximum fold induction at any concentration relative to that of GS-E ligand, CHO 27-63 cells; for fold induction at 3.3 µM: read-out: Fold Induction, 27-63 Assay, 3.3 uM; for fold induction at 33 µM: read-out: Fold Induction, 27-63 Assay, 33 uM; for Fold Induction, 27-63 Assay, 3.3 uM: 3.3 uM ligand; for Fold Induction, 27-63 Assay, 3.3 uM / Fold Induction, 27-63 Assay, 33 uM: RLU ligand treated / RLU DMSO treated cells; for Fold Induction, 27-63 Assay, 33 uM: 33 uM ligand
[3] = test system: mutated ecdysone receptor-based gene switch; experiment: In vivo SEAP induction, ligand by IP injection; set-up: species or system C57BL/6 mouse; settings: for Secreted Alkaline Phosphatase (percentage of GS ™-E ligand induction) Day 2 / Secreted Alkaline Phosphatase (percentage of GS ™-E ligand induction) Day 3 / Secreted Alkaline Phosphatase (percentage of GS ™-E ligand induction) Day 11: mouse serum; for Secreted Alkaline Phosphatase (percentage of GS ™-E ligand induction) Day 2: IP 2.6 μmol ligand 3 days after electroporation, day 2 after ligand; for Secreted Alkaline Phosphatase (percentage of GS ™-E ligand induction) Day 3 / Secreted Alkaline Phosphatase (percentage of GS ™-E ligand induction) Day 11: IP 2.6 μmol ligand; for Secreted Alkaline Phosphatase (percentage of GS ™-E ligand induction) Day 3: day 3 after ligand; for Secreted Alkaline Phosphatase (percentage of GS ™-E ligand induction) Day 11: day 11 after ligand
Method in brief: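 Gene switch plasmids (receptor under CMV promoter) electroporated into quadriceps of C57BL/6 mice; 3 days later ligand given IP at 2.6 μmol or 26 nmol in 50 μL DMSO per mouse. Serum SEAP measured by chemiluminescence 2-11 days after dosing, averaged over four animals, expressed as % of GS™-E ligand induction.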

[4] = Aqueous equilibrium solubility in pH 7.4 buffer; settings: for solubility: pH 7.4 aqueous phosphate buffer, pH 7.4, aqueous buffer, thermodynamic from solid; for Solubility pH 7.4: pH 7.4 aqueous buffer, room temperature, equilibrium
[5] = Determination of water solubility (de-ionized water, LC/MS); settings: kinetic from dmso stock
Procedure: Aqueous solutions are prepared as follows in triplicate: 50 μl of a 10,000 ppm solution (2,000 μg of solid dissolved in 200 μl of methanol) of the substrate in methanol or DMSO is added to 1 mL of de-ionized water in a 2 dram or smaller vial with magnetic stirring. Stirring is continued overnight at ambient temperature. The slurry is taken up into a syringe with a luer tip. The contents are passed through a new 13 mm 0.2 ρM Acrodisc filter (tuffryn or glass fiber) into an autosampler bottle. For preparation of calibration standard solutions: dilutions of the 10,000 ppm solution were prepared at 10, 5, 1, 0.5, and 0.2 ppm. […] For more soluble materials, dilution of the samples into this range is preferable to increasing the calibration range because the non-linearity of the response results in less useful calibration curves. However a shift in the range of calibration standards is required for very insoluble compounds.
Chromatography of the samples was then preformed. For most diacylhydrazines the following conditions were adequate for the measurement. Other columns and gradients may be substituted as appropriate.
Analysis of the test samples is conducted as follows: Each solubility replicate is analyzed in duplicate. […] Standard curves are obtained from duplicate injections of the standards. The concentration of the substrate is determined by calculation from the equation relating concentration and response.

[6] = read-out: 27-63 assay EC50, CHO 27-63 stable cell line, luciferase reporter, average of two wells

Compound	chromatographic logP [1]	EC50 [2] [nM]	27-63 assay Rel Max FI [2]	fold induction at 3.3 µM [2]	fold induction at 33 µM [2]	Secreted Alkaline Phosphatase (percentage of GS ™-E ligand induction) Day 2 [3]	Secreted Alkaline Phosphatase (percentage of GS ™-E ligand induction) Day 3 [3]	Secreted Alkaline Phosphatase (percentage of GS ™-E ligand induction) Day 11 [3]	solubility [4] [µg/mL]	solubility kinetic [5] [µM]	also measured
CCc1ccc(C(=O)NN(C(=O)c2cc(C)cc(C)c2)C(C)(C)C)c(F)c1 [RG-101523, 3,5-Dimethyl-benzoic acid N-tert-butyl-N′-(4-ethyl-2-fluoro-benzoyl)-hydrazide]	4.35	165	0.943	2430	2740	85 percentage of GS ™-E ligand induction	79 percentage of GS ™-E ligand induction	1,116 percentage of GS ™-E ligand induction	1 (≈ 2.7 µM)	13.4 (≈ 4.96 µg/mL)	–
CCc1ccc(C(=O)NN(C(=O)c2cc(C)cc(C)c2)C(C)(C)C)cc1 [RG-102125]	–	190	0.721	–	–	–	–	–	0.6 (≈ 1.7 µM)	–	–
CCc1c(OC)cccc1C(=O)NN(C(=O)c1cc(C)cc(C)c1)C(C)(C)C [RG-102240, N-(3-methoxy-2-ethylbenzoyl)-N′-(3,5-dimethylbenzoyl)-N′-tert-butylhydrazine]	4.2	–	1	–	–	100 percentage of GS ™-E ligand induction	100 percentage of GS ™-E ligand induction	100 percentage of GS ™-E ligand induction	0.7 (≈ 1.83 µM)	9.8 (≈ 3.75 µg/mL)	logP [1]: 4.2; Secreted Alkaline Phosphatase Day 2 ([3]; IP 130 nmol ligand): 652 ng/ml mouse sera; Secreted Alkaline Phosphatase Day 3 ([3]; IP 130 nmol ligand): 1,780 ng/ml mouse sera; Secreted Alkaline Phosphatase Day 7 ([3]; IP 130 nmol ligand): 139 ng/ml mouse sera
COc1cccc(C(=O)NN(C(=O)c2cc(C)cc(C)c2)C(C)(C)C)c1C [RG-102398]	–	325	1.017	2880	3180	–	–	–	≤ 0.2	–	logP [1]: 3.7
CCC(N(NC(=O)c1cccc(C)c1C)C(=O)c1cc(C)cc(C)c1)C(C)(C)C (centres unmarked) [RG-103309, 3,5-dimethyl-benzoic acid N′-(2,3-dimethyl-benzoyl)-N-(1-ethyl-2,2-dimethyl-propyl)-hydrazide]	–	3020	0.975	2540	1200	251 percentage of GS ™-E ligand induction	298 percentage of GS ™-E ligand induction	–	≤ 0.2	2.9 (≈ 1.14 µg/mL)	Secreted Alkaline Phosphatase Day 2 ([3]; IP 26 nmol ligand): 3,428 ng/ml mouse sera; Secreted Alkaline Phosphatase Day 3 ([3]; IP 26 nmol ligand): 2,800 ng/ml mouse sera; Secreted Alkaline Phosphatase Day 7 ([3]; IP 26 nmol ligand): 143 ng/ml mouse sera
COc1cc(C(=O)N(NC(=O)c2ccc3c(c2C)OCCO3)C(C)(C)C)cc(OC)c1O [RG-115009, 4-Hydroxy-3,5-dimethoxy-benzoic acid N-tert-butyl-N′-(5-methyl-2,3-dihydro-benzo[1,4]dioxine-6-carbonyl)-hydrazide]	1.9	–	–	–	–	4 percentage of GS ™-E ligand induction	3 percentage of GS ™-E ligand induction	–	–	30.4 (≈ 13.5 µg/mL)	–
CCc1c(C(=O)NN(C(=O)c2ccc(F)c(C(F)(F)F)c2)C(C)(C)C)ccc2c1OCCO2 [RG-115280]	–	–	0.254	–	–	–	–	–	–	–	Fold Induction, 27-63 Assay, 3.3 uM ([2]; average of two wells): 9; Fold Induction, 27-63 Assay, 33 uM ([2]; average of two wells): 422; EC50 [2, 6]: 11000 nM; Solubility pH 7.4 [4]: 0.0012 mg/mL
COc1ccc(C(=O)N(NC(=O)c2ccc3c(c2C)OCCO3)C(C)(C)C)c(OC)n1 [RG-115517, 2,6-dimethoxy-nicotinic acid N-tert-butyl-N′-(5-methyl-2,3-dihydro-benzo[1,4]dioxine-6-carbonyl)-hydrazide]	3.15	–	–	–	–	4 percentage of GS ™-E ligand induction	3 percentage of GS ™-E ligand induction	–	14 (≈ 32.6 µM)	36.7 (≈ 15.8 µg/mL)	–
Cc1c(C(=O)NN(C(=O)c2cc(F)c(F)c(F)c2)C(C)(C)C)ccc2c1CCCO2 [RG-115575, 3,4,5-Trifluoro-benzoic acid N-tert-butyl-N′-(5-methyl-chroman-6-carbonyl)-hydrazide]	4.1	–	–	–	–	74 percentage of GS ™-E ligand induction	78 percentage of GS ™-E ligand induction	69 percentage of GS ™-E ligand induction	–	21.6 (≈ 9.08 µg/mL)	–
COc1cc(C(=O)N(NC(=O)c2ccc3c(c2C)OCCO3)C(C)(C)C)cc(OC)c1C [RG-115637, 5-Methyl-2,3-dihydro-benzo[1,4]dioxine-6-carboxylic acid N′-tert-butyl-N′-(3,5-dimethoxy-4-methyl-benzoyl)-hydrazide]	3.54	117	1.305	4160	2740	12 percentage of GS ™-E ligand induction	7 percentage of GS ™-E ligand induction	0 percentage of GS ™-E ligand induction	–	13.7 (≈ 6.06 µg/mL)	–
CCCC(N(NC(=O)c1cccc(OC)c1C)C(=O)c1cc(C)cc(C)c1)C(C)(C)C (centres unmarked) [RG-115823]	–	–	1.069	–	–	129 percentage of GS ™-E ligand induction	183 percentage of GS ™-E ligand induction	2,652 percentage of GS ™-E ligand induction	–	–	Fold Induction, 27-63 Assay, 3.3 uM ([2]; average of two wells): 2093; Fold Induction, 27-63 Assay, 33 uM ([2]; average of two wells): 1025; EC50 [2, 6]: 11 nM; Secreted Alkaline Phosphatase Day 2 ([3]; IP 26 nmol ligand): 3,788 ng/ml mouse sera; Secreted Alkaline Phosphatase Day 3 ([3]; IP 26 nmol ligand): 2,705 ng/ml mouse sera; Secreted Alkaline Phosphatase Day 7 ([3]; IP 26 nmol ligand): 373 ng/ml mouse sera; Solubility pH 7.4 [4]: 0.0003 mg/mL
